Where two headings read alike, the source gives them in different places.
Assays:
[1] = biological target: T1, human CB2 receptors (Homo sapiens, UniProt P34972); test: cAMP assay in HEK-293 cells, hCB2 agonist; format: cell-based; conditions: inhibition of forskolin-stimulated cAMP, HEK-293 cells; for EC50: read-out: hCB2 EC50 (cAMP ag)
T1 construct: (cDNA clone) CNR0200000
Procedure: (§1) Functional assays which monitor G-protein coupled receptor or downstream cellular responses can be used to characterize potential CB1 receptor and/or CB2 receptor agonist or antagonist activities. Direct activation (or inhibition of activation) can be monitored using a GTPγS assay (membrane-based assay) or cAMP assay (whole cell-based assay).
cAMP assays were performed in HEK-293 cells stably expressing human CB1 or CB2 receptors. […] Cells suspensions were centrifuged and the cells were washed once with PBS, were centrifuged again, and the cells were re-suspended in HBSS (Hank's Balanced Salt Solution, Cellgro, Cat #21-022-CV) solution containing 10 mM HEPES and 0.1% fatty acid free BSA (Sigma, Cat #A0281). Cell suspensions were prepared at 1,500,000 cells per ml. Stock solutions of test substances (10 mM) in DMSO were diluted to 1 mM using 30% DMSO as diluent. Test substances of solutions (1 mM) were further diluted down to 3× of final assay concentrations in the above HBSS buffer containing 0.1% BSA in the presence of 90 uM forskolin (Sigma Cat#F6886). To perform the assay, 20 uL of cell suspension (1,500,000 cells/mL) were added to each well in 96 well plate and treated with 10 uL test substance solution diluted as described above. Cells and compounds were incubated at 37° C. for 30 minutes. Cells were lysed and cAMP concentration was measured using DiscoveRx −XS+ cAMP assay kit (DiscoveRx Corporation Ltd., Fremont, Calif., USA, Cat #90-0075-03), following the manufacturer's protocol. GraphPad Prism software was used to calculate EC50 values using sigmoidal dose response curve fitting. The maximal amount of cAMP produced by forskolin was defined as 100%.

[2] = biological target: T2, human CB1 receptors (Homo sapiens, UniProt P21554); test: cAMP assay in HEK-293 cells, hCB1 agonist; format: cell-based; conditions: inhibition of forskolin-stimulated cAMP, HEK-293 cells
T2 construct: (cDNA clone) CNR01L000
Excerpt: (§2) Stable, HEK-293-derived cell lines that recombinantly express hCBI or hCB2 were established. In brief, the clone hCB1 (CNR IL) or hCB2 (CNR2) was transfected into human embryonic kidney cells (HEK-293) using Lipofectamine 2000 (Gibco, Cat#11668-019) according to the manufacturer's protocol. Transfected clones were isolated by single colony purification and clones were screened for receptor expression using a whole cell, ^3H—CP 55,940 radioligand binding assay. HEK-293 stable cells were maintained in Dulbecco's modified Eagles medium (DMEM) containing 10% fetal bovine serum, 2 mM L-glutamine and 0.5 mg/mL G-418.
as §1
cAMP assays were performed in HEK-293 cells stably expressing human CB1 or CB2 receptors. For cannabinoid receptor functional assays measuring agonist effects on cellular cAMP levels, monolayers of cultured cells were harvested with enzyme-free PBS-based cell dissociation buffer (Gibco, Cat#13151-04). Cells suspensions were centrifuged and the cells were washed once with PBS, were centrifuged again, and the cells were re-suspended in HBSS (Hank's Balanced Salt Solution, Cellgro, Cat #21-022-CV) solution containing 10 mM HEPES and 0.1% fatty acid free BSA (Sigma, Cat #A0281). Cell suspensions were prepared at 1,500,000 cells per ml. Stock solutions of test substances (10 mM) in DMSO were diluted to 1 mM using 30% DMSO as diluent. Test substances of solutions (1 mM) were further diluted down to 3× of final assay concentrations in the above HBSS buffer containing 0.1% BSA in the presence of 90 uM forskolin (Sigma Cat#F6886). To perform the assay, 20 uL of cell suspension (1,500,000 cells/mL) were added to each well in 96 well plate and treated with 10 uL test substance solution diluted as described above. Cells and compounds were incubated at 37° C. for 30 minutes. Cells were lysed and cAMP concentration was measured using DiscoveRx −XS+ cAMP assay kit (DiscoveRx Corporation Ltd., Fremont, Calif., USA, Cat #90-0075-03), following the manufacturer's protocol. GraphPad Prism software was used to calculate EC50 values using sigmoidal dose response curve fitting. The maximal amount of cAMP produced by forskolin was defined as 100%. CB1 or CB2 agonists reduced forskolin-stimulated cAMP signaling. The EC50 value of an agonist compound was defined as the concentration at which 50% of the forskolin-stimulated cAMP synthesis was inhibited.

[3] = biological target: T3, recombinant human cannabinoid receptor CB1 (Homo sapiens, UniProt P21554); test: Cannabinoid receptor radioligand binding assay, [3H]-CP 55,940 displacement, hCB1; conditions: displacement of 0.5 nM [3H]-CP 55,940; read-out: hCB1 IC50 (CP displ)
T3 construct: (cDNA clone) CNR01L000
Excerpt: as §2
(§3) Membranes were isolated from transfected cells as follows. Monolayers of cultured cells were washed twice with phosphate-buffered saline (PBS). Cells were scraped into 20 mM HEPES, pH 7.4, 10 mM EDTA containing complete cocktail protease inhibitors (Roche, Catalog #11 697 498 001) and were homogenized by an electric-powered mechanical probe homogenizer (Omni GLH; probe G7-195S) for 40 seconds at 7000 rpm. Homogenates were centrifuged 10 minutes at 1000×g at 4° C. The supernatant was collected and was centrifuged for 1 hour at 40,000×g. The supernatant was then decanted and the resulting pellet was re-suspended in 20 mM HEPES, pH 7.4, 5 mM MgCl2, 1 mM EDTA, 10% sucrose with complete cocktail protease inhibitors. Protein concentration of membrane suspensions were measured by Bradford Protein Assay using bovine serum albumin as the standard (BioRad catalog #500-0006). Protein concentrations of membrane suspensions were adjusted with the final buffer in the range of 5 to 10 mg/mL and were stored at −80° C. until further use.
Radioligand binding assays were performed by incubating membranes (2-10 μg protein) prepared from HEK-293 cells expressing recombinant human cannabinoid receptors, CB1 or CB2, at room temperature with 0.5 nM cannabinoid receptor agonist, [^3H]-CP 55,940 (Perkin Elmer, catalog #NET1051) in 0.2 mL of binding buffer (50 mM Tris-HCl, pH 7.5, 5 mM MgCl2, 2.5 mM EDTA) and 0.1% fatty acid free bovine serum albumin (Sigma Cat. #A0821) for 90 minutes. A rapid filtration technique using Millipore FB filter plates (Catalog #MADVNOB) and filtration apparatus (Millipore system Catalog MAVM0960R) with vacuum aspiration was used to harvest and rinse labeled membranes (8 times with 0.2 mL of chilled binding buffer). The radioactivity bound to the filters was counted with 0.05 mL of liquid scintillant (UltraGold MV, PerkinElmer catalog #6013159) in a scintillation counter (Perkin Elmer Microbeta instrument). Nonspecific binding was determined in the presence of unlabeled 1 μM CP 55,940 (Sigma Aldrich, catalog #C1112). Binding data were analyzed using GraphPad Prism (GraphPad Software, Inc. San Diego, Calif.).

[4] = biological target: T4, recombinant human cannabinoid receptor CB2 (Homo sapiens, UniProt P34972); test: Cannabinoid receptor radioligand binding assay, [3H]-CP 55,940 displacement, hCB2
T4 construct: (cDNA clone) CNR0200000
Procedure: as §3, with “Cells were scraped into 20 mM HEPES, pH 7.4, 10 mM EDTA containing complete cocktail protease inhibitors (Roche, Catalog #11 697 498 001) and were homogenized by an electric-powered mechanical probe homogenizer (Omni GLH; probe G7-195S) for 40 seconds at 7000 rpm.” left out
A rapid filtration technique using Millipore FB filter plates (Catalog #MADVNOB) and filtration apparatus (Millipore system Catalog MAVM0960R) with vacuum aspiration was used to harvest and rinse labeled membranes (8 times with 0.2 mL of chilled binding buffer). […] Binding data were analyzed using GraphPad Prism (GraphPad Software, Inc. San Diego, Calif.).

[5] = biological target: T5, human CB2 (hCB2) (Homo sapiens, UniProt P34972); test: 35S GTPγS binding assay, hCB2 agonist; format: biochemical; conditions: GTPγS agonist, HEK-293 membranes; read-out: hCB2 EC50 (GTPyS ag)
T5 construct: (cDNA clone) CNR0200000
Procedure: cDNA expression clones for human CB1 (hCB1, Genbank Accession No. AY225225) and human CB2 (hCB2, Genbank Accession No. AY242132) expressed in vector pcDNA3.1+ were purchased from UMR cDNA Resource Center, Rolla, Mo. (Clone ID CNR01L000 for hCB1; CNR0200000 for hCB2).
as §3, with “Cells were scraped into 20 mM HEPES, pH 7.4, 10 mM EDTA containing complete cocktail protease inhibitors (Roche, Catalog #11 697 498 001) and were homogenized by an electric-powered mechanical probe homogenizer (Omni GLH; probe G7-195S) for 40 seconds at 7000 rpm.” left out
as §1
^35S GTPγS binding assays were performed by incubating recombinant cell membranes prepared above (5 μg) in the presence of scintillation proximity assay beads (SPA beads, Catalog #RPNQ0252 GE Healthcare, Buckinghamshire, England) in GTPγS binding buffer [50 mM HEPES (pH 7.4), 100 mM NaCl, 5 mM MgCl2, 0.001% saponin (Sigma catalog #S4521)] supplemented with 20 uM GDP (Sigma catalog #G7127) in the presence or absence of test compound. The reaction was carried out in 96-well microplates with 0.1 nM [^35S]GTPγS (specific activity=1250 Ci/mmol; Perkin Elmer catalog #NEG030X250UC) in a final volume of 100 uL. After a 90 min room temperature incubation, the reaction was analyzed using a scintillation counter (Perkin Elmer Microbeta instrument). Binding data were analyzed using GraphPad Prism.

T2 sequence (P21554 whole entry): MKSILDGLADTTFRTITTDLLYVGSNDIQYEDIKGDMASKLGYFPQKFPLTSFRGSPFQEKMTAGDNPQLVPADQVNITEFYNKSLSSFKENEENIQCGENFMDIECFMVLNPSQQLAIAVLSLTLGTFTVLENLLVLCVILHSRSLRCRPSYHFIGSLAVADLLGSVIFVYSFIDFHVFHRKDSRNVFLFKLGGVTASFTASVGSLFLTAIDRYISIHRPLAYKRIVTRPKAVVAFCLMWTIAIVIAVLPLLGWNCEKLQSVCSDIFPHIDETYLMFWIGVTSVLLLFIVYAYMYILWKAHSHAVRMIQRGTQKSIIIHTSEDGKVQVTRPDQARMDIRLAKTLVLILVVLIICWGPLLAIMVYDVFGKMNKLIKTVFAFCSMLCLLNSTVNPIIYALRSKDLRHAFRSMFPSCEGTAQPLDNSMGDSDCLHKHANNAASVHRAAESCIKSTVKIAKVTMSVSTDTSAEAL
T1 sequence (P34972 whole entry): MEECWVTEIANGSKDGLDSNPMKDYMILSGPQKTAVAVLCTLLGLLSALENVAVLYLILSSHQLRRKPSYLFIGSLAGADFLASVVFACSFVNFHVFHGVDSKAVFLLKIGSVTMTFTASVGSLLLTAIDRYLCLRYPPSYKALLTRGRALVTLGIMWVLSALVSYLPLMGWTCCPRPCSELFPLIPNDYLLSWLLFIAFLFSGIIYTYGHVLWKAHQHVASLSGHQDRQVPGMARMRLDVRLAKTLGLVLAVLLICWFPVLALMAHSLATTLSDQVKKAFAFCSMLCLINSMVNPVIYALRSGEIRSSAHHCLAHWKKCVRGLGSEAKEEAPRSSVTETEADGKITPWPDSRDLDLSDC
T4 sequence (P34972 whole entry): as above
T5 sequence (P34972 whole entry): as above
T3 sequence (P21554 whole entry): as the sequence (P21554 whole entry) above

SMILES	hCB2 EC50 (cAMP ag, nM) [1]	hCB1 EC50 (cAMP ag, nM) [2]	IC50 [3]	IC50 ([4]; displacement of 0.5 nM [3H]-CP 55,940, read-out: hCB2 IC50 (CP displ))	EC50 [5]	IC50 [4]	EC50 [1]
COc1ccc(C(=O)c2cc3cc(C)n(CCN4CCNC4=O)c3s2)cc1 [Compound 61]	NS (NS means “Not Significant,” which means less than 30% agonist activity when compared to the positive control.)	NS (NS means “Not Significant,” which means less than 30% agonist activity when compared to the positive control.)					
COc1ccc(C(=O)c2cc3cc(C)n(CCCNC(C)=O)c3s2)cc1 [Compound 63, N-(3-(2-(4-Methoxybenzoyl)-5-methyl-6H-thieno[2,3-b]pyrrol-6-yl)propyl)acetamide]	NS (NS means “Not Significant,” which means less than 30% agonist activity when compared to the positive control.)	NS (NS means “Not Significant,” which means less than 30% agonist activity when compared to the positive control.)					
COc1ccc(C(=O)c2cc3cc(C)n(C(=O)N4CCOCC4)c3s2)cc1 [Compound 66, (2-(4-Methoxybenzoyl)-5-methyl-6H-thieno[2,3-b]pyrrol-6-yl)(morpholino)methanone]		NS (NS means “Not Significant,” which means less than 30% agonist activity when compared to the positive control.)	> 10 µM	> 10 µM			
COc1ccc(C(=O)c2cc3cc(C)n(CCCNS(=O)(=O)C(F)(F)F)c3s2)cc1 [Compound 75, 1,1,1-Trifluoro-N-(3-(2-(4-methoxybenzoyl)-5-methyl-6H-thieno[2,3-b]pyrrol-6-yl)propyl)methanesulfonamide]	NS (NS means “Not Significant,” which means less than 30% agonist activity when compared to the positive control.)	NS (NS means “Not Significant,” which means less than 30% agonist activity when compared to the positive control.)					
CCOc1ccc(C(=O)c2cc3cc(C)n(CCCNS(C)(=O)=O)c3s2)cc1 [Compound 94, N-(3-(2-(4-Ethoxybenzoyl)-5-methyl-6H-thieno[2,3-b]pyrrol-6-yl)propyl)methanesulfonamide]		NS (NS means “Not Significant,” which means less than 30% agonist activity when compared to the positive control.)			< 0.1 µM	0.1 to 1 µM	0.1 to 1 µM
CCOc1ccc(C(=O)c2cc3cc(C)n(CCCNS(C)(=O)=O)c3s2)c(F)c1 [Compound 95, N-(3-(2-(4-Ethoxy-2-fluorobenzoyl)-5-methyl-6H-thieno[2,3-b]pyrrol-6-yl)propyl)methanesulfonamide]		NS (NS means “Not Significant,” which means less than 30% agonist activity when compared to the positive control.)			0.1 to 1 µM	0.1 to 1 µM	< 0.1 µM
Cc1ccc(C(=O)c2cc3cc(C)n(CCCNS(C)(=O)=O)c3s2)c(F)c1 [Compound 97, N-(3-(2-(2-Fluoro-4-methylbenzoyl)-5-methyl-6H-thieno[2,3-b]pyrrol-6-yl)propyl)methanesulfonamide]		NS (NS means “Not Significant,” which means less than 30% agonist activity when compared to the positive control.)			< 0.1 µM	0.1 to 1 µM	< 0.1 µM
COc1ncc(C(=O)c2cc3cc(C)n(CCN4CCOCC4)c3s2)cn1 [Compound 118, (2-Methoxypyrimidin-5-yl)(5-methyl-6-(2-morpholinoethyl)-6H-thieno[2,3-b]pyrrol-2-yl)methanone]		NS (NS means “Not Significant,” which means less than 30% agonist activity when compared to the positive control.)			0.1 to 1 µM		0.1 to 1 µM

Reference: patent US20130029970A1 (priority 2009, published 2013)
